Laboratory results published in patent publication US8946248B2, “HIV inhibiting 5-substituted pyrimidines” (priority 2004, dated 2015).
Values belong to the molecule of their own block, whether it stands above or below them.

Tests used:
[1] = system: Strain B, mutation K103N in HIV reverse transcriptase; experiment: Antiviral activity, cellular assay, strain B; format: cell-based; conditions: for pEC50 B: HIV strain with RT mutation K103N, cellular assay
Experimental: (§1) Because of the increasing emergence of drug resistant HIV strains, the present compounds were tested for their potency against clinically isolated HIV strains harboring several mutations. These mutations are associated with resistance to reverse transcriptase inhibitors and result in viruses that show various degrees of phenotypic cross-resistance to the currently commercially available drugs such as for instance AZT and delavirdine.
(§2) The antiviral activity of the compound of the present invention has been evaluated in the presence of wild type HIV and HIV mutants bearing mutations at the reverse transcriptase gene. The activity of the compounds is evaluated using a cellular assay and the residual activity is expressed in pEC50 values. The columns IIIB and A-G in the table list the pEC50 values against various strains IIIB, A-G.
Strain B contains mutation K103N in HIV reverse transcriptase, […]

[2] = system: Strain E, mutations L100I and K103N in HIV reverse transcriptase; experiment: Antiviral activity, cellular assay, strain E; format: cell-based; conditions: for pEC50 E: HIV strain with RT mutations L100I and K103N, cellular assay
Experimental: as §1, §2
Strain E contains mutations L100I and K103N in HIV reverse transcriptase, […]

[3] = system: Strain C, mutation L100I in HIV reverse transcriptase; experiment: Antiviral activity, cellular assay, strain C; format: cell-based; conditions: for pEC50 C: HIV strain with RT mutation L100I, cellular assay
Experimental: as §1, §2
Strain C contains mutation L100I in HIV reverse transcriptase, […]

[4] = target: Strain F, mutations K103N and Y181C in HIV reverse transcriptase; experiment: microbe, parasite or virus in culture; format: cell-based; conditions: for pEC50 F: HIV strain with RT mutations K103N and Y181C, cellular assay
[5] = system: Strain G, mutations L100I, K103N, Y181C, V179I, Y181C, E138G, V179I, L2214F, V278V/1 and A327A/V in HIV reverse transcriptase; experiment: Antiviral activity, cellular assay, strain G; format: cell-based; conditions: HIV strain with RT mutations L100I, K103N, Y181C, V179I, E138G, L2214F, V278V/1 and A327A/V; cellular assay
Experimental: as §1, §2

[6] = system: Strain A, mutation Y181C in HIV reverse transcriptase; experiment: Antiviral activity, cellular assay, strain A; format: cell-based; conditions: for pEC50 A: HIV strain with RT mutation Y181C, cellular assay
Experimental: as §1, §2
Strain A contains mutation Y181C in HIV reverse transcriptase, […]

[7] = system: Strain IIIB, wild type HIV-LAI strain; experiment: Antiviral activity, cellular assay, strain IIIB; format: cell-based
Experimental: as §1, §2
Strain IIIB is wild type HIV-LAI strain

[8] = system: Strain D, mutation Y188L in HIV reverse transcriptase; experiment: Antiviral activity, cellular assay, strain D; format: cell-based; conditions: for pEC50 D: HIV strain with RT mutation Y188L, cellular assay
Experimental: as §1, §2
Strain D contains mutation Y188L in HIV reverse transcriptase, […]

[9] = Antiviral activity, cellular assay, strain G; format: cell-based, HIV; conditions: Human immunodeficiency virus 1, read-out: pEC50 G (converted)
Experimental: as §1, §2

SMILES: CCON=Cc1cnc(Nc2ccc(C#N)cc2)nc1Nc1c(C)cc(/C=C/C#N)cc1C [Compound 31]
- pEC50 B [1]: 8.5
- pEC50 E [2]: 8.2
- pEC50 C [3]: 8.5
- pEC50 F [4]: 8.2
- pEC50 G [5]: 5.1
- pEC50 A [6]: 8.2
- pEC50 IIIB [7]: 8.5
- pEC50 D [8]: 8.2

SMILES: Cc1cc(/C=C/C#N)cc(C)c1Nc1nc(Nc2ccc(C#N)cc2)ncc1NC=O [Compound 13]
- EC50 ([1]; Human immunodeficiency virus 1, read-out: pEC50 B (converted)): 0.631 nM
- EC50 ([2]; Human immunodeficiency virus 1, read-out: pEC50 E (converted)): 6.31 nM
- EC50 ([3]; Human immunodeficiency virus 1, read-out: pEC50 C (converted)): 0.631 nM
- EC50 ([4]; Human immunodeficiency virus 1, read-out: pEC50 F (converted)): 3.98 nM
- EC50 [9]: 1000 nM
- EC50 ([6]; Human immunodeficiency virus 1, read-out: pEC50 A (converted)): 2.51 nM
- EC50 ([7]; Human immunodeficiency virus 1, IIIB): 0.398 nM
- EC50 ([8]; Human immunodeficiency virus 1, read-out: pEC50 D (converted)): 3.16 nM

SMILES: Cc1cc(CCC#N)cc(C)c1Nc1nc(Nc2ccc(C#N)cc2)ncc1C(N)=O [Compound 26]
- pEC50 B [1]: 9.7
- pEC50 E [2]: 9.2
- pEC50 C [3]: 10
- pEC50 F [4]: 9.2
- pEC50 G [5]: 6.4
- pEC50 A [6]: 9
- pEC50 IIIB [7]: 9.7
- pEC50 D [8]: 8.6

SMILES: CC(=O)Nc1cnc(Nc2ccc(C#N)cc2)nc1Nc1c(F)cc(/C=C/C#N)cc1Cl [Compound 28]
- pEC50 B [1]: 8.6
- pEC50 E [2]: 7
- pEC50 C [3]: 8.3
- pEC50 F [4]: 7.3
- pEC50 G [5]: 4.7
- pEC50 A [6]: 7.9
- pEC50 IIIB [7]: 8.8
- pEC50 D [8]: 7.3

SMILES: N#C/C=C/c1cc(F)c(Nc2nc(Nc3ccc(C#N)cc3)ncc2[N+](=O)[O-])c(Cl)c1
- melting point: > 250 °C

SMILES: N#C/C=C/c1cc(F)c(Nc2nc(Nc3ccc(C#N)cc3)ncc2N)c(Cl)c1
- melting point: > 250 °C

SMILES: CON=Cc1cnc(Nc2ccc(C#N)cc2)nc1Nc1c(C)cc(/C=C/C#N)cc1C [Compound 32]
- pEC50 B [1]: 8.7
- pEC50 E [2]: 8.6
- pEC50 C [3]: 9.3
- pEC50 F [4]: 8.7
- pEC50 G [5]: 6
- pEC50 A [6]: 8.5
- pEC50 IIIB [7]: 8.5
- pEC50 D [8]: 8.6

SMILES: N#C/C=C/c1cc(F)c(Nc2nc(Nc3ccc(C#N)cc3)ncc2Br)c(Cl)c1
- melting point: 236 °C

More lines, now with the values ahead:

- melting point: > 250 °C
SMILES: Cc1cc(/C=C/C#N)cc(C)c1Nc1nc(Nc2ccc(C#N)cc2)ncc1C(N)=O

- melting point: > 250 °C
SMILES: CC(=O)Nc1cnc(Nc2ccc(C#N)cc2)nc1Nc1c(C)cc(/C=C/C#N)cc1C

- melting point: > 250 °C
SMILES: Cc1cc(/C=C/C#N)cc(C)c1Nc1nc(Nc2ccc(C#N)cc2)ncc1Br

- melting point: > 250 °C
SMILES: Cc1cc(/C=C/C#N)cc(C)c1Nc1nc(Nc2ccc(C#N)cc2)ncc1[N+](=O)[O-]

- melting point: > 250 °C
SMILES: Cc1cc(/C=C/C#N)cc(C)c1Nc1nc(Nc2ccc(C#N)cc2)ncc1C(=O)O

- melting point: > 250 °C
SMILES: Cc1cc(/C=C/C#N)cc(C)c1Nc1nc(Nc2ccc(C#N)cc2)ncc1N
